Target: T1, hNPR-C (Homo sapiens, UniProt P17342)
T1 sequence (P17342 27-541): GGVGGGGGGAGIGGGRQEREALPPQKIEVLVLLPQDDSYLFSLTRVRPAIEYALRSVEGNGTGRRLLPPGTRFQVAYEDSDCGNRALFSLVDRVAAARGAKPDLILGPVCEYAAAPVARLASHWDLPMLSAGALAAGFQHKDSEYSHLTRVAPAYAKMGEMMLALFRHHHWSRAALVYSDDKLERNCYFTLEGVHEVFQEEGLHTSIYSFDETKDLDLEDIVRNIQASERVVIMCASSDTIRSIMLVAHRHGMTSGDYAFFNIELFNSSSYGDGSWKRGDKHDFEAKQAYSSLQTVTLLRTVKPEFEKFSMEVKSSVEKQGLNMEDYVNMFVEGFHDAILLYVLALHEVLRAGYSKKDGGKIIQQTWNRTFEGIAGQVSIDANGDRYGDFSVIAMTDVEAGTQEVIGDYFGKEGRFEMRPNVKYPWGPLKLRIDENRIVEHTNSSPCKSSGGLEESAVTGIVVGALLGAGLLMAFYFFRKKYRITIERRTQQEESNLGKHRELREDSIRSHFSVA
Assay: Competitive binding to membranes from cells expressing human NPR-C
Design: expressed in transfected cells
Details: FIG. 19, in comparison to rat ANP
Protocol: Membrane preparation. Stable cell lines expressing human NPR-A (Lowe and Fendly, J. Biol. Chem. 267:21691-21697 (1992)) or human NPR-C (Cunningham et al., EMBO J 13, 2508-2515 (1994)) were removed from cell culture dishes with 0.5 mM EDTA in phosphate buffered saline (PBS), placed in ice cold PBS and centrifuged at 228 g for 10 min at 4° C. The cell pellets were resuspended in ice-cold homogenization buffer (50 mM HEPES, 1 mM EDTA, 1 mM DTT, 0.25 M sucrose, 0.7 mg/mL pepstatin A, 0.5 mg/mL leupeptin and 1 mM PMSF, pH 7.4). The cells were then homogenized using a Brinkman polytron at setting 5 for 30 sec. The homogenate was centrifuged at 400×g for 10 min at 4° C. The supernatant was collected and centrifuged at 100,000×g for 30 min at 4° C. […] Protein concentrations was determined using the Biorad protein assay with IgG as a standard.
Membrane competition binding assays. […] The plates were washed six times with PBS, then air dried prior to adding scintillant and counted in a Packard Topcount scintillation counter for 1 min/well. Binding was measured in duplicate for each concentration of competitor.
Data analysis. The competition binding curves and cGMP production dose responses were analyzed by the four-parameter logistic equation with the KaleidaGraph™ program (Synergy Software, PA) to obtain estimates of the IC50 or EC50 values. […]

Binding to human NPR-C membranes, competition for 125I-rat ANP: does not effectively bind
Structure (SMILES): CC[C@H](C)[C@@H]1NC(=O)[C@H](CCCNC(=N)N)NC(=O)[C@H](CC(=O)O)NC(=O)[C@H]([C@@H](C)CC)NC(=O)[C@H](CO)NC(=O)CNC(=O)[C@H]([C@@H](C)O)NC(=O)[C@H](Cc2ccccc2)NC(=O)[C@@H](NC(=O)[C@H](CO)NC(=O)[C@H](CO)NC(=O)[C@H](CCCNC(=N)N)NC(=O)[C@H](CCCNC(=N)N)NC(=O)[C@H](CC(C)C)NC(=O)[C@@H](N)CO)CSSC[C@@H](C(=O)N[C@@H](CC(N)=O)C(=O)N[C@@H](CO)C(=O)N[C@@H](Cc2ccccc2)C(=O)N[C@@H](CCCNC(=N)N)C(=O)N[C@@H](Cc2ccc(O)cc2)C(=O)O)NC(=O)CNC(=O)[C@H](CC(C)C)NC(=O)CNC(=O)[C@H](CO)NC(=O)[C@H](CCC(N)=O)NC(=O)[C@H](C)NC(=O)[C@H](CCCNC(=N)N)NC1=O [ANF 27]
